Reference: publication PMC11327140, “Selective inhibitor of sodium-calcium exchanger, SEA0400, affects NMDA receptor currents and abolishes their calcium-dependent block by tricyclic antidepressants” (Frontiers in Pharmacology, 2024)
Values joined by “and” are separate entries in the source; they are usually repeats but may differ in a detail not shown here. Equal values may be shown once. “Also recorded” adds a separate entry of the source.

What was measured:
[1] = target: NMDA receptor (NMDAR) currents (Rattus norvegicus, UniProt P35439+Q00959+Q00960); assay: Whole-cell patch-clamp recording of NMDA-activated currents in cortical neurons of primary culture; format: cell-based; conditions: for change of fraction of current blocked in the presence of SEA0400: 50 nM SEA0400, 10 µM KB-R7943, 10 µM ATL, 1 µM DES; for increase of IC50 for NMDAR inhibition in the presence of SEA0400: 50 nM SEA0400 versus control
Sequence of NMDA receptor (NMDAR) currents (Q00960 27-1482 limits assumed, other chains not shown): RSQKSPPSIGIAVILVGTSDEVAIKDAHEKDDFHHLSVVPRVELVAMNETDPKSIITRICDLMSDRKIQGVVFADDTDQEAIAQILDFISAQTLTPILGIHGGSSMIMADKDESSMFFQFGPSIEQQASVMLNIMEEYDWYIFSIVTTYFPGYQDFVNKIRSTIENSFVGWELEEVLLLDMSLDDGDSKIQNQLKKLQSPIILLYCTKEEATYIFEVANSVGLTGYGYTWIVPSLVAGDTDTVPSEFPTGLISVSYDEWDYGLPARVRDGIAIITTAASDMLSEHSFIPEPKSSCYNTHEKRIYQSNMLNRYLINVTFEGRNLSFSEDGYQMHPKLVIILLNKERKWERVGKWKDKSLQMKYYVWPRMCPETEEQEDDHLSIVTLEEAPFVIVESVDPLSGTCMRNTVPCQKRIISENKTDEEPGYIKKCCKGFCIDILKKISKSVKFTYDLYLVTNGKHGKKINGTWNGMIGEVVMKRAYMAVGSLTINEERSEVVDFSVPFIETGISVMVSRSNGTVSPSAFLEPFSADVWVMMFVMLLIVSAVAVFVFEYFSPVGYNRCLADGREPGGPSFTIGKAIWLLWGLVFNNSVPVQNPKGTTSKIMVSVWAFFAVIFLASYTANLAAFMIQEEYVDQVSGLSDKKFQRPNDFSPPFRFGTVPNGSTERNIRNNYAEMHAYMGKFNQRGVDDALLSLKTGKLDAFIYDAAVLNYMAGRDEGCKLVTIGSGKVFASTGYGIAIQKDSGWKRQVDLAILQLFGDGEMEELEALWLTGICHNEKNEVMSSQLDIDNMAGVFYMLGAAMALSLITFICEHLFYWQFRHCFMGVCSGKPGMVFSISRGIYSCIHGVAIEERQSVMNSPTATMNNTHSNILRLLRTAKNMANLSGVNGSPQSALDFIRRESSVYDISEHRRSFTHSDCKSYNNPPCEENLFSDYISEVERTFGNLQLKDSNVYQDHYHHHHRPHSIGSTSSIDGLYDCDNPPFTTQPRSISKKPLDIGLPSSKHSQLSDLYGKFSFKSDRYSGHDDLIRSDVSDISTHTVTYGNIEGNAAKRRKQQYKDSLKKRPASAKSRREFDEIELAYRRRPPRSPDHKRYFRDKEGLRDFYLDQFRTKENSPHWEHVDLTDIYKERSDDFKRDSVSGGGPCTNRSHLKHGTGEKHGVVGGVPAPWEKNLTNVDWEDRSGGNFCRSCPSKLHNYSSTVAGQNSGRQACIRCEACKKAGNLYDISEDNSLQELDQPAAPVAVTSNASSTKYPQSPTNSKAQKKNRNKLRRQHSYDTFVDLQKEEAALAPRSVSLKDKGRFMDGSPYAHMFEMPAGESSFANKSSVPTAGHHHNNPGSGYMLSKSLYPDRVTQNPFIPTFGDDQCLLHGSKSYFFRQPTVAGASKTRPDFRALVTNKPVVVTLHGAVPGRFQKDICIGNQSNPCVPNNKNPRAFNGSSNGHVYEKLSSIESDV
Sequence of NMDA receptor (NMDAR) currents (Q00959 23-1464 limits assumed, other chains not shown): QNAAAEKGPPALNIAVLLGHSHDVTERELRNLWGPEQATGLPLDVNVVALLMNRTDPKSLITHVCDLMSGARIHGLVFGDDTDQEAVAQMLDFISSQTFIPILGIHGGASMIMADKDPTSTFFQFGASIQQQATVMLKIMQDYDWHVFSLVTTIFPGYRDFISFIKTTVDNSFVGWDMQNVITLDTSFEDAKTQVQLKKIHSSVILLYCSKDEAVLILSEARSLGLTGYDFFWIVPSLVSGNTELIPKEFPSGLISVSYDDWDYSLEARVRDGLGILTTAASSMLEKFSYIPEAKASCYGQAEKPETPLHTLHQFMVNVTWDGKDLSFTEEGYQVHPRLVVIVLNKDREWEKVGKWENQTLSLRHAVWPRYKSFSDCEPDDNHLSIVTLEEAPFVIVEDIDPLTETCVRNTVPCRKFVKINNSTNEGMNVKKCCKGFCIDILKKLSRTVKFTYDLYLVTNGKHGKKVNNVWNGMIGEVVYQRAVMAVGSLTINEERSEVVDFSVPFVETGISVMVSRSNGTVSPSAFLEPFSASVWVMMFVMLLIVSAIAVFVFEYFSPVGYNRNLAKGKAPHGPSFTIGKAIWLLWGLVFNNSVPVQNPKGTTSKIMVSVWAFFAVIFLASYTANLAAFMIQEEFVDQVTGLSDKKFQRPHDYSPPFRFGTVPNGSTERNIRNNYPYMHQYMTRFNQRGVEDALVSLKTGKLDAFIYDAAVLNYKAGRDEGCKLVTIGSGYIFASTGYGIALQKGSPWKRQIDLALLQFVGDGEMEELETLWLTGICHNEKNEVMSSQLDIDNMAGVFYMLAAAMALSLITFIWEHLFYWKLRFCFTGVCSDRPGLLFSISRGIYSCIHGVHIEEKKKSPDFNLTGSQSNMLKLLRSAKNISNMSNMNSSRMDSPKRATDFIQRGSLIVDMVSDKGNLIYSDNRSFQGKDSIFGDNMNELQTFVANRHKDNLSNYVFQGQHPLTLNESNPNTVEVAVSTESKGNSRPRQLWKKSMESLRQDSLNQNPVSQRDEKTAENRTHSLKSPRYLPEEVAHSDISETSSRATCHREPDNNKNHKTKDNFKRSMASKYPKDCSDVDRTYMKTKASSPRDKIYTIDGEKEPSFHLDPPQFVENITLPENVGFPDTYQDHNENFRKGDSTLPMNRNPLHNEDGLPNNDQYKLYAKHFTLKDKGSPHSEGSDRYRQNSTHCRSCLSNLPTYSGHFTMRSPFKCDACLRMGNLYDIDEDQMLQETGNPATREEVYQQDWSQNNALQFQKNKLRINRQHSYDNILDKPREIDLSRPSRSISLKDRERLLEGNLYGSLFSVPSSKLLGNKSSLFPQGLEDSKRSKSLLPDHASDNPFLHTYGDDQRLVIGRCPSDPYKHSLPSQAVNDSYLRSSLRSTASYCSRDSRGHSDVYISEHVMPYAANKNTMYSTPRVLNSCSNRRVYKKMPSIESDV

NMDAR currents = system: NMDAR currents; parameters: method as in Sibarov et al., 2015; conditions: 10 µM KB-R7943; ref Sibarov et al., 2015; cited from earlier work
NMDAR channels = system: NMDAR channels; parameters: method as in MacDonald et al., 1991; conditions: ref MacDonald et al., 1991; cited from earlier work
NCX = system: NCX; parameters: method as in Matsuda et al., 2001; conditions: ref Matsuda et al., 2001; read-out: IC50 for SEA0400 inhibition of NCX in neurons; cited from earlier work

Compound: CN(C)CCC=C1c2ccccc2CCc2ccccc21 [ATL, amitriptyline]
- change of fraction of current blocked in the presence of SEA0400 ([1]; 1 mM Ca2+, -70 mV): decreased
- increase of IC50 for NMDAR inhibition in the presence of SEA0400 [1]: 23 fold
- increase of IC50 for NMDAR inhibition in the presence of SEA0400 ([1]; listed as amitriptyline): about 20 fold

Compound: CNCCCN1c2ccccc2CCc2ccccc21 [DES, desipramine]
- change of fraction of current blocked in the presence of SEA0400 ([1]; 1 mM Ca2+, -70 mV): decreased
- increase of IC50 for NMDAR inhibition in the presence of SEA0400 [1]: ~16 fold
- increase of IC50 for NMDAR inhibition in the presence of SEA0400 ([1]; listed as desipramine): about 20 fold

Compound: N=C(N)SCCc1ccc(OCc2ccc([N+](=O)[O-])cc2)cc1 [KB-R7943]
- decrease of NMDAR currents (NMDAR currents): about 60%
- change of fraction of current blocked in the presence of SEA0400 ([1]; 1 mM Ca2+, -70 mV): increased

Compound: C[C@]12N[C@H](Cc3ccccc31)c1ccccc12 [MK-801]
- rate constant of dissociation from NMDAR channels (NMDAR channels): ~0.003 s⁻¹

Compound: CCOc1ccc(Oc2ccc(OCc3cc(F)ccc3F)cc2)c(N)c1 [SEA0400]
- decrease of decay time constant versus control ([1]; 50 nM SEA0400, 1 mM Ca2+): 2 fold
- effect on NMDAR currents in BAPTA-loaded neurons ([1]; 50 nM SEA0400, 1 mM external Ca2+, neurons loaded with BAPTA): abolished the effect; also recorded: did not cause NMDAR inhibition
- voltage dependence of decrease of steady-state amplitude ([1]; 50 nM SEA0400, -70 mV versus +30 mV, 1 mM Ca2+): did not depend on membrane voltage
- effect on steady-state amplitude of NMDA-activated currents in Ca2+-free solution ([1]; 50 nM SEA0400, Ca2+ omitted from external solution, -70 mV): abolished the effect; also recorded: did not cause any decrease
- IC50 ([1]; 2 mM Ca2+, -70 mV, 100 µM NMDA + 30 µM Gly, steady state, read-out: IC50 for SEA0400 inhibition of NMDA-activated currents): 27 nM and ~27 nM
- decrease of steady-state amplitude of NMDAR currents (upper limit of effect) ([1]; SEA0400 itself, extracellular Ca2+ present): ≤ 30%
- decay time constant of NMDAR current from peak to steady state ([1]; in the presence of 50 nM SEA0400, 1 mM Ca2+, -70 mV): 2.0 ± 0.2 s
- IC50 (NCX): 33 nM

Compound: c1ccc(C2(N3CCCCC3)CCCCC2)cc1 [phencyclidine]
- rate constant of dissociation from NMDAR channels (NMDAR channels): about 0.03 s^-1
